The source of these data is ChEMBL document CHEMBL1155835 (J Med Chem, 2008).

Molecules are shown by their SMILES. Some results are limits rather than exact numbers.

Assay [1] in a line: Inhibition of hamster liver ALDH2. On the set-up: species or system Cricetinae.
Assay [2] addresses T1, Aldehyde dehydrogenase, mitochondrial (Homo sapiens, UniProt P05091).
T1 sequence (P05091 whole entry): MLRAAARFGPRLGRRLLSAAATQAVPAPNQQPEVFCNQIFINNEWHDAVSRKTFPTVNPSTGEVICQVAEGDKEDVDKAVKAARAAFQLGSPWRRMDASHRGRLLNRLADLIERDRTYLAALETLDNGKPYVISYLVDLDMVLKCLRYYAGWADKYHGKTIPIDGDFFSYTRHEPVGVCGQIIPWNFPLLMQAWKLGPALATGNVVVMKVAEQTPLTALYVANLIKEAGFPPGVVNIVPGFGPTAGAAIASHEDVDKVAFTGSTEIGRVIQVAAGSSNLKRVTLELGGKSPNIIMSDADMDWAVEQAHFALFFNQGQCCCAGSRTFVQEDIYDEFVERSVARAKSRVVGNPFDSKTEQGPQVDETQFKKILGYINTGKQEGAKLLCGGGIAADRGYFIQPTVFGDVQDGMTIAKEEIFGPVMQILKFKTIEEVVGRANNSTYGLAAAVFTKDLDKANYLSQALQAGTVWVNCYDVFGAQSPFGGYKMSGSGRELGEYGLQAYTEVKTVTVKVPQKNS
The assay is described as follows: Inhibition of human recombinant ALDH2.

`CCCCCCOc1ccc2c(=O)c(-c3ccc(O)cc3)coc2c1`: the IC50 (commonly the point on the concentration scale where inhibition reaches its midpoint) in assay [1] amounted to 1500 nM.
On the same count and under the same terms, with `O=C(O)CCCCCCCCCOc1ccc2c(=O)c(-c3ccc(O)cc3)coc2c1` the figure was 50 nM.
The same measure, in the same setting: the result for `O=C(O)CCCCOc1ccc2c(=O)c(-c3ccc(O)cc3)coc2c1` reads 100 nM.
On the same count and under the same terms, the result for `CCCCCCCCCCCCOc1ccc2c(=O)c(-c3ccc(O)cc3)coc2c1` reads more than 9000 nM; that for `O=c1c(-c2ccc(O)cc2)coc2cc(OCCOCCOCCO)ccc12`, 40 nM; that for `O=C(O)CCCCCCCOc1ccc2c(=O)c(-c3ccc(O)cc3)coc2c1`, 40 nM.
In assay [1], `CCOc1ccc2c(=O)c(-c3ccc(O)cc3)coc2c1` displayed an IC50 of 80 nM.
Consider `O=C(O)CCCCCCCCCCCOc1ccc2c(=O)c(-c3ccc(O)cc3)coc2c1`, for which, in assay [1], it took 130 nM to reach half-maximal inhibition (IC50).
Same read-out and setting: with `O=C(O)COc1ccc2c(=O)c(-c3ccc(O)cc3)coc2c1` the figure was 1200 nM.
Same read-out and setting: with `O=c1c(-c2ccc(O)cc2)coc2cc(O)ccc12` [DAIDZEIN] the figure was 9000 nM.
`COc1cc(O)c2c(=O)c(-c3ccc(O)cc3)coc2c1` [PRUNETIN]: in assay [2], the Ki (commonly the dissociation constant of the complex between target and ligand, obtained from inhibition or displacement) was 450 nM.
